Assay results: PubChem BioAssay (NCI)
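GI50 marks 50% less growth. TGI denotes the concentration required for complete inhibition of growth.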

Key:
Assay in all cases: NCI tumour cell line growth inhibition, 384-well format
OVCAR-4 ovarian = system: OVCAR-4 ovarian
RXF 393 renal = system: RXF 393 renal
PC-3 prostate = system: PC-3 prostate
SF-295 CNS = system: SF-295 CNS
HT29 colon = system: HT29 colon
SK-MEL-5 melanoma = system: SK-MEL-5 melanoma
HS 578T breast = system: HS 578T breast
TK-10 renal = system: TK-10 renal
HCT-15 colon = system: HCT-15 colon
NCI-H522 lung = system: NCI-H522 lung
T-47D breast = system: T-47D breast
NCI-H23 lung = system: NCI-H23 lung
A549 NSCLC = system: A549 NSCLC
EKVX NSCLC = system: EKVX NSCLC
HCT-116 colon = system: HCT-116 colon
MDA-MB-231 breast = system: MDA-MB-231 breast
OVCAR-3 ovarian = system: OVCAR-3 ovarian
UACC-257 melanoma = system: UACC-257 melanoma
MOLT-4 leukemia = system: MOLT-4 leukemia
LOX IMVI melanoma = system: LOX IMVI melanoma
A498 renal = system: A498 renal
SK-OV-3 ovarian = system: SK-OV-3 ovarian
CAKI-1 renal = system: CAKI-1 renal
SN12C renal = system: SN12C renal
BT-549 breast = system: BT-549 breast
IGROV1 ovarian = system: IGROV1 ovarian
UACC-62 melanoma = system: UACC-62 melanoma
HL-60(TB) leukemia = system: HL-60(TB) leukemia
COLO 205 colon = system: COLO 205 colon
NCI/ADR-RES ovarian = system: NCI/ADR-RES ovarian
RPMI-8226 leukemia = system: RPMI-8226 leukemia
U251 glioblastoma = system: U251 glioblastoma
SK-MEL-28 melanoma = system: SK-MEL-28 melanoma
NCI-H226 lung = system: NCI-H226 lung
MCF7 breast = system: MCF7 breast
MDA-MB-435 melanoma = system: MDA-MB-435 melanoma
OVCAR-5 ovarian = system: OVCAR-5 ovarian
SF-539 CNS = system: SF-539 CNS
SF-268 CNS = system: SF-268 CNS
M14 melanoma = system: M14 melanoma
MALME-3M melanoma = system: MALME-3M melanoma
MDA-MB-468 breast = system: MDA-MB-468 breast
SR leukemia = system: SR leukemia
NCI-H322M lung = system: NCI-H322M lung
SNB-19 CNS = system: SNB-19 CNS
DU-145 prostate = system: DU-145 prostate
KM12 colon = system: KM12 colon
ACHN renal = system: ACHN renal
HOP-62 NSCLC = system: HOP-62 NSCLC
SNB-75 CNS = system: SNB-75 CNS
HOP-92 NSCLC = system: HOP-92 NSCLC
HCC-2998 colon = system: HCC-2998 colon
NCI-H460 NSCLC = system: NCI-H460 NSCLC
OVCAR-8 ovarian = system: OVCAR-8 ovarian

COC1CCN(C(=O)c2cc(Cc3n[nH]c(=O)c4ccccc34)ccc2F)CC1
GI50 (OVCAR-4 ovarian): > 100 µM | TGI (OVCAR-4 ovarian): > 100 µM | GI50 (RXF 393 renal): > 100 µM | TGI (RXF 393 renal): > 100 µM | GI50 (PC-3 prostate): > 100 µM | TGI (PC-3 prostate): > 100 µM | GI50 (SF-295 CNS): 11.4 µM | TGI (SF-295 CNS): > 100 µM | GI50 (HT29 colon): > 100 µM | TGI (HT29 colon): > 100 µM | GI50 (SK-MEL-5 melanoma): 74.2 µM | TGI (SK-MEL-5 melanoma): > 100 µM | GI50 (HS 578T breast): > 100 µM | TGI (HS 578T breast): > 100 µM | GI50 (TK-10 renal): > 100 µM | TGI (TK-10 renal): > 100 µM | GI50 (HCT-15 colon): > 100 µM | TGI (HCT-15 colon): > 100 µM | GI50 (NCI-H522 lung): > 100 µM | TGI (NCI-H522 lung): > 100 µM | GI50 (T-47D breast): > 100 µM | TGI (T-47D breast): > 100 µM | GI50 (NCI-H23 lung): 59.7 µM | TGI (NCI-H23 lung): > 100 µM | GI50 (A549 NSCLC): > 100 µM | TGI (A549 NSCLC): > 100 µM | GI50 (EKVX NSCLC): > 100 µM | TGI (EKVX NSCLC): > 100 µM | GI50 (HCT-116 colon): 28.7 µM | TGI (HCT-116 colon): > 100 µM | GI50 (MDA-MB-231 breast): 81 µM | TGI (MDA-MB-231 breast): > 100 µM | GI50 (OVCAR-3 ovarian): 7.79 µM | TGI (OVCAR-3 ovarian): > 100 µM | GI50 (UACC-257 melanoma): > 100 µM | TGI (UACC-257 melanoma): > 100 µM | GI50 (MOLT-4 leukemia): 4.06 µM | TGI (MOLT-4 leukemia): 14.2 µM | GI50 (LOX IMVI melanoma): 33.5 µM | TGI (LOX IMVI melanoma): > 100 µM | GI50 (A498 renal): > 100 µM | TGI (A498 renal): > 100 µM | GI50 (SK-OV-3 ovarian): 32.3 µM | TGI (SK-OV-3 ovarian): > 100 µM | GI50 (CAKI-1 renal): > 100 µM | TGI (CAKI-1 renal): > 100 µM | GI50 (SN12C renal): 46.1 µM | TGI (SN12C renal): > 100 µM | GI50 (BT-549 breast): 84.6 µM | TGI (BT-549 breast): > 100 µM | GI50 (IGROV1 ovarian): > 100 µM | TGI (IGROV1 ovarian): > 100 µM | GI50 (UACC-62 melanoma): > 100 µM | TGI (UACC-62 melanoma): > 100 µM | GI50 (HL-60(TB) leukemia): 10.4 µM | TGI (HL-60(TB) leukemia): 29.7 µM | GI50 (COLO 205 colon): > 100 µM | TGI (COLO 205 colon): > 100 µM | GI50 (NCI/ADR-RES ovarian): 34.9 µM | TGI (NCI/ADR-RES ovarian): > 100 µM | GI50 (RPMI-8226 leukemia): 46.6 µM | TGI (RPMI-8226 leukemia): > 100 µM | GI50 (U251 glioblastoma): 25.8 µM | TGI (U251 glioblastoma): > 100 µM | GI50 (SK-MEL-28 melanoma): > 100 µM | TGI (SK-MEL-28 melanoma): > 100 µM | GI50 (NCI-H226 lung): > 100 µM | TGI (NCI-H226 lung): > 100 µM | GI50 (MCF7 breast): 68.1 µM | TGI (MCF7 breast): > 100 µM | GI50 (MDA-MB-435 melanoma): > 100 µM | TGI (MDA-MB-435 melanoma): > 100 µM | GI50 (OVCAR-5 ovarian): > 100 µM | TGI (OVCAR-5 ovarian): > 100 µM | GI50 (SF-539 CNS): 27.3 µM | TGI (SF-539 CNS): > 100 µM | GI50 (SF-268 CNS): 44.5 µM | TGI (SF-268 CNS): > 100 µM | GI50 (M14 melanoma): 74.7 µM | TGI (M14 melanoma): > 100 µM | GI50 (MALME-3M melanoma): > 100 µM | TGI (MALME-3M melanoma): > 100 µM | GI50 (MDA-MB-468 breast): 9.62 µM | TGI (MDA-MB-468 breast): 33.3 µM | GI50 (SR leukemia): 0.364 µM | TGI (SR leukemia): 2.45 µM | GI50 (NCI-H322M lung): > 100 µM | TGI (NCI-H322M lung): > 100 µM | GI50 (SNB-19 CNS): 46.9 µM | TGI (SNB-19 CNS): > 100 µM | GI50 (DU-145 prostate): 68.2 µM | TGI (DU-145 prostate): > 100 µM | GI50 (KM12 colon): > 100 µM | TGI (KM12 colon): > 100 µM | GI50 (ACHN renal): > 100 µM | TGI (ACHN renal): > 100 µM | GI50 (HOP-62 NSCLC): 10.4 µM | TGI (HOP-62 NSCLC): 49.8 µM | GI50 (SNB-75 CNS): 94.7 µM | TGI (SNB-75 CNS): > 100 µM | GI50 (HOP-92 NSCLC): > 100 µM | TGI (HOP-92 NSCLC): > 100 µM | GI50 (HCC-2998 colon): 63.7 µM | TGI (HCC-2998 colon): > 100 µM | GI50 (NCI-H460 NSCLC): 5.93 µM | TGI (NCI-H460 NSCLC): 56.1 µM | GI50 (OVCAR-8 ovarian): 22.6 µM | TGI (OVCAR-8 ovarian): > 100 µM
